From patent publication US20160122821A1, “GENETIC MARKERS OF ANTIPSYCHOTIC RESPONSE” (SUREGENE, LLC, priority 2013, published 2016)

Tested on: Caucasian patients with schizophrenia (CATIE)
Test: Genetic association (linear regression, additive model) of SNP alleles with MMRM-modelled change in PANSS Total Score under antipsychotic treatment, CATIE trial
Assay type: in vivo, human
Experimental: For the CATIE study, individual cases were diagnosed as having SZ based on DSM-III/IV criteria. Treatment response for all patients was assessed using the Positive and Negative Syndrome Scale (PANSS) (Kay et al., 1987; Kay et al., 1989; Leucht et al., 2005). […] To avoid possible bias in post hoc selection of a treatment response variable, the inventors used the mixed model repeated measures (MMRM) approach developed by van den Oord and coworkers (van den Oord et al., 2009). […] The design of the CATIE study, including details of consent for genetic analyses, has been described in detail by others (Lieberman et al., 2005; Stroup et al., 2003; Sullivan et al., 2008). Only retrospective genetic analyses, judged to be exempt from human studies requirements by an IRB, were conducted in the current study. Consented DNA samples were obtained from the Rutgers University Cell and DNA Repository in collaboration with […]. […] All of these patients self-reported as having exclusively European ancestry. […] Genotyping was performed on a fee for service basis according to Illumina's standard operating procedures. Raw intensity files were processed using Illumina® BeadStudio version 1.7.4 software. […] Only two of these had been previously genotyped in the CATIE sample. […] To allow comparison to previously published PGx findings for CATIE and to avoid possible bias in post-hoc selection of a treatment response variable, the inventors used the mixed model repeated measures (MMRM) approach developed by Van den Oord and coworkers (van den Oord et al., 2009; […] et al., 2011). Briefly, this method models random effects by introducing random slopes for treatment effects, allowing treatment effects to be different across subjects. The MMRM approach serves to increase the statistical power to detect genetic associations by increasing the precision in measuring change in PANSS Total Score (PANSS-T) by accounting for variance due to baseline PANSS-T, and treatment, as well as smoothing out the random fluctuations in PANSS-T between visits due to various uncontrolled variables. […] Bozeman, Mont.). Quantile-Quantile (QQ) plots were prepared using the R statistical package version 2.14.1. For comparison purposes, original CATIE-provided SNP genotypes in specific genes were evaluated using the same genetic analysis. Haplotype association integrating newly generated and original genotypes for specific regions was carried out in SVS using haplotype blocks predefined by Haploview software. […] For each of the SNPs listed the reference SNP (rs) number is provided, which provides the known sequence context for the given SNP (see, e.g., National Center for Biotechnology Information (NCBI) SNP database available on the world wide web at ncbi.nlm.nih.gov/snp).

With `Cc1cc2c(s1)Nc1ccccc1N=C2N1CCN(C)CC1` [Olanzapine, olanzapine] the “Beta (PANSS)” value (ADAMTS9-AS2 rs17071651 allele C) was −3.03 PANSS, the “Beta (PANSS)” value (AGAP1 rs4663220 allele T) was −3.07 PANSS and the “Beta (PANSS)” value (ANK3 rs2893823 allele A) was −4.47 PANSS. For the same compound, the “Beta (PANSS)” value (ANK3 rs10821660 allele G) was −4.45 PANSS, the “Beta (PANSS)” value (APCDD1 rs1045584 allele G) was −3.41 PANSS and the “Beta (PANSS)” value (ARHGAP31 rs751607 allele A) was −4.30 PANSS. For the same compound, the “Beta (PANSS)” value (ARVCF rs2238794 allele C) was −3.11 PANSS, the “Beta (PANSS)” value (ATP10A rs2291351 allele A) was −4.99 PANSS and the “Beta (PANSS)” value (BIK rs5996274 allele A) was −4.94 PANSS. For the same compound, the “Beta (PANSS)” value (CA10 rs741682 allele A) was −5.58 PANSS, the “Beta (PANSS)” value (CACNA1B rs12352971 allele G) was −4.21 PANSS and the “Beta (PANSS)” value (CACNG4 rs7219571 allele A) was −5.84 PANSS. For the same compound, the “Beta (PANSS)” value (CAMK2D rs13113625 allele C) was −3.68 PANSS, the “Beta (PANSS)” value (CDH13 rs3743621 allele C) was −5.54 PANSS and the “Beta (PANSS)” value (CLIC5 rs35822882 allele G) was −14.90 PANSS. For the same compound, the “Beta (PANSS)” value (CNTN4 rs1554561 allele T) was −4.50 PANSS, the “Beta (PANSS)” value (CNTN4 rs4685501 allele T) was −4.63 PANSS and the “Beta (PANSS)” value (CPNE5 rs12194367 allele T) was −3.14 PANSS. For the same compound, the “Beta (PANSS)” value (CSMD1 rs2724972 allele G) was −4.69 PANSS, the “Beta (PANSS)” value (CSMD1 rs7815861 allele C) was −5.06 PANSS and the “Beta (PANSS)” value (DLGAP1 rs498419 allele A) was −3.07 PANSS. For the same compound, the “Beta (PANSS)” value (DLGAP1 rs561434 allele A) was −4.43 PANSS, the “Beta (PANSS)” value (EHD4 rs1048166 allele C) was −3.04 PANSS and the “Beta (PANSS)” value (EHD4 rs1048175 allele C) was −3.04 PANSS. The “Beta (PANSS)” value (EML1 rs34198557 allele C) was −4.01 PANSS, the “Beta (PANSS)” value (ERBB4 rs7565257 allele A) was −3.44 PANSS and the “Beta (PANSS)” value (ERG rs9981408 allele G) was −3.15 PANSS. The “Beta (PANSS)” value (EXOC2 rs9405889 allele C) was −3.21 PANSS, the “Beta (PANSS)” value (FAM170A rs2162856 allele A) was −3.06 PANSS and the “Beta (PANSS)” value (FAM173B rs12652786 allele C) was −3.39 PANSS. For the same compound, the “Beta (PANSS)” value (FBN3 rs2287937 allele C) was −5.34 PANSS, the “Beta (PANSS)” value (FGF14 rs2390674 allele A) was −4.22 PANSS and the “Beta (PANSS)” value (FHIT rs971866 allele A) was −5.07 PANSS. For the same compound, the “Beta (PANSS)” value (FMNL2 rs4664113 allele C) was −4.25 PANSS, the “Beta (PANSS)” value (FSTL5 rs13127909 allele C) was −4.60 PANSS and the “Beta (PANSS)” value (GAN rs1345895 allele A) was −3.53 PANSS. The “Beta (PANSS)” value (GAS7 rs9904524 allele G) was −4.96 PANSS, the “Beta (PANSS)” value (GPC6 rs9301876 allele A) was −4.68 PANSS and the “Beta (PANSS)” value (GRM8 rs17865066 allele A) was −7.97 PANSS. The “Beta (PANSS)” value (GRM8 rs17865434 allele C) was −7.97 PANSS, the “Beta (PANSS)” value (HTR1B rs11568817 allele G) was −3.16 PANSS and the “Beta (PANSS)” value (IFT74 rs4463511 allele C) was −3.77 PANSS. For the same compound, the “Beta (PANSS)” value (IL1RAP rs2361835 allele A) was −3.93 PANSS, the “Beta (PANSS)” value (IL1RAP rs7642607 allele A) was −3.93 PANSS and the “Beta (PANSS)” value (IL1RAP rs7642797 allele A) was −3.93 PANSS. For the same compound, the “Beta (PANSS)” value (IL15 rs3806798 allele A) was −4.33 PANSS, the “Beta (PANSS)” value (ITPR1 rs11717244 allele C) was −3.53 PANSS and the “Beta (PANSS)” value (JPH2 rs2064381 allele A) was −3.06 PANSS. For the same compound, the “Beta (PANSS)” value (KAZN rs12130605 allele C) was −3.66 PANSS and the “Beta (PANSS)” value (KCND2 rs718805 allele A) was −5.26 PANSS.
